# Test results taken from patent US9822110B2, “Sulfonamide derivative and pharmaceutical use thereof” (EA Pharma Co., Ltd., priority 2013, dated 2017).
# pIC50: −log10 of the molar value.
# Target: T1, MAdCAM-1/α4β7 integrin (Homo sapiens, UniProt P13612+P26010)
# T1 construct: a human B-cell line known to express α4β7 integrin; endogenous in cells; host or cells: RPMI-8866 (human B-cell line)
# T1 sequence (P13612 34-1032): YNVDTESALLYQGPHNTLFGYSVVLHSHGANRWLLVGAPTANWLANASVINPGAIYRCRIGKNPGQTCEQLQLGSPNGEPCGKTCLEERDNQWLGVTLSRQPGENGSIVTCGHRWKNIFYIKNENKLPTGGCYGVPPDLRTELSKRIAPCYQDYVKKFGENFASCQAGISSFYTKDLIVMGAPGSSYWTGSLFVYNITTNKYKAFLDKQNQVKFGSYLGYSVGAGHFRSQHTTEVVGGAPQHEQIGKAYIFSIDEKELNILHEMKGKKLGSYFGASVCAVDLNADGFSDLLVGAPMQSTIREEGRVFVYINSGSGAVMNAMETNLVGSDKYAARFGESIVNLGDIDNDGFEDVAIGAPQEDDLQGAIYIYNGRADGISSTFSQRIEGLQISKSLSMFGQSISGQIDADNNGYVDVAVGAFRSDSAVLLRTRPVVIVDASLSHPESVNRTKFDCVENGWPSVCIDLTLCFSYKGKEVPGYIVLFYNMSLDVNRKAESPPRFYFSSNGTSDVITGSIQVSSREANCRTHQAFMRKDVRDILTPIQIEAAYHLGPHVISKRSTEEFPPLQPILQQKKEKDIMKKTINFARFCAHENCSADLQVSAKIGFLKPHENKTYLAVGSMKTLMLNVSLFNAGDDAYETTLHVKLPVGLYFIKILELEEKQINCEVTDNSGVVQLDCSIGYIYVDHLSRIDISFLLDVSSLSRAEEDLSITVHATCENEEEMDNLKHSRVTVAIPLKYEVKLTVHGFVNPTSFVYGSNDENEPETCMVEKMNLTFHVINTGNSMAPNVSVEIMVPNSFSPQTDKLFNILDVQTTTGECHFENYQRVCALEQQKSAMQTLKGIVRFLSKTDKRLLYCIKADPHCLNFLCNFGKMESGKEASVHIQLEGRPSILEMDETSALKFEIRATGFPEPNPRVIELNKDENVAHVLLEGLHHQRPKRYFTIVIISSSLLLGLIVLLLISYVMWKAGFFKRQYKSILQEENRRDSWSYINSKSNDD
# T1 sequence (P26010 20-798): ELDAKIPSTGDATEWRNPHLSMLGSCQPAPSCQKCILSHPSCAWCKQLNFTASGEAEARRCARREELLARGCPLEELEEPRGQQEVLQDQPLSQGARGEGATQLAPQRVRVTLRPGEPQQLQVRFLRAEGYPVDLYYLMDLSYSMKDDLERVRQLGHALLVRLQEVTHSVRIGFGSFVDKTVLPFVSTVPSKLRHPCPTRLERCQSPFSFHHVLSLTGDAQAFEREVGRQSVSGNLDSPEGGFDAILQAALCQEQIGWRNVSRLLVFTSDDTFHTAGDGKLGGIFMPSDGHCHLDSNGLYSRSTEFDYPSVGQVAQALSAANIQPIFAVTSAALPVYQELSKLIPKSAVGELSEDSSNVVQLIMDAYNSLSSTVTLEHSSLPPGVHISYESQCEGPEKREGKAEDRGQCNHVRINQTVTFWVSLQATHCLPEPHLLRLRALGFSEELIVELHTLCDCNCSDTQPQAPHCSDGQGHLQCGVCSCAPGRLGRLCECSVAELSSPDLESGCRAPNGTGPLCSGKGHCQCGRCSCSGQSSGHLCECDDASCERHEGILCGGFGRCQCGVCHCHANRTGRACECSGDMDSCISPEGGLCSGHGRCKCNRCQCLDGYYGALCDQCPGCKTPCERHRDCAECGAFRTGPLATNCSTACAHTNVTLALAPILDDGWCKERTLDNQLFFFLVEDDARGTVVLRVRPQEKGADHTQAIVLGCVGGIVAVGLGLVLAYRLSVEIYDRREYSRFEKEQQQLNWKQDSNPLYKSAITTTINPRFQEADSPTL
# Experiment: Evaluation test (1) for MAdCAM-1/α4β7 integrin binding inhibitory activity in the presence of serum (RPMI-8866 cell binding to MAdCAM-1/Fc)
# Type: cell-based
# Details: RPMI-8866 cells, recombinant mouse MAdCAM-1/Fc, human serum at final concentration of 50%; read-out: α4β7 Serum Activity rank when α4β7 serum was added
# Experimental: The selectivity was determined by dividing the IC50 value in the evaluation test for VCAM-1/α4β1 integrin binding inhibitory activity by the IC50 value in the evaluation test for MAdCAM-1/α4β7 integrin binding inhibitory activity. • (3) Evaluation Test (1) for MAdCAM-1/α4β7 Integrin Binding Inhibitory Activity in the Presence of Serum
# The ability of test substances to inhibit the binding of RPMI-8866 cell line, a human B-cell line known to express α4β7 integrin, to MAdCAM-1 was examined.
# A 96-well microtiter plate was coated overnight at 4° C. with a recombinant mouse MAdCAM-1/Fc (R&D systems) solution diluted with the buffer A (carbonate buffer, pH 9.6). After washing once with PBS, 150 μL/well of Block Ace (manufactured by Snow Brand Milk Products Co., Ltd.) was added, and it was incubated at room temperature for 2 hours. After removal, it was washed once with PBS.
# 100 μL of each of test substances and RPMI-8866 cells diluted with a binding buffer solution (DMEM containing 40 mM HEPES, 0.2% BSA, and 4 mM MnCl2) to various concentrations was added to the plate coated with MAdCAM-1/Fc, so that human serum was contained at a final concentration of 50%, and it was incubated at 30° C. for 15 minutes to 60 minutes. After the cells were bound to the wells, unbound cells were removed by washing with PBS. 50 μL/well of the buffer solution C (PBS containing 1.5% Triton X-100) was added to the plate to dissolve the bound RPMI-8866 cells. 30 μL of substrate buffer (Promega, CytoTox 96 Non-Radioactive Cytotoxicity Assay) was added to 30 μL of a cell lysate to allow a reaction for 30 minutes at room temperature in a dark place. 30 μL of stop solution (Promega, CytoTox 96 Non-Radioactive Cytotoxicity Assay) was added thereto to determine the absorbance at 490 nm using a plate reader. The absorbance was obtained herein by detecting the activity of lactate dehydrogenase (LDH) eluted in a supernatant of each well, that is, the absorbance is proportional to the number of RPMI-8866 cells remaining on the plate by being bound to MAdCAM-1. The test was duplicated, and the cell binding rate at various concentrations with the absorbance of the well containing no test substance being taken as 100% was determined, to calculate the concentration IC50 at which 50% of binding was inhibited.
row,Compound,pIC50
1,"Cn1c(=O)n(-c2ccc(C[C@H](NC(=O)c3cc(F)c(NS(=O)(=O)c4ccc(-c5cnc(C6CCNCC6)nc5)cc4)cc3F)C(=O)O)nc2)c(=O)c2ccncc21 [Example 26, (2S)-2-[[2,5-Difluoro-4-[[4-[2-(4-piperidyl)pyrimidin-5-yl]phenyl]sulfonylamino]benzoyl]amino]-3-[5-(1-methyl-2,4-dioxo-pyrido[3,4-d]pyrimidin-3-yl)-2-pyridyl]propanoic acid]",7.30 to 8.00
2,"Cn1c(=O)n(-c2ccc(C[C@H](NC(=O)c3cc(F)c(NS(=O)(=O)c4ccc(-c5cnc(C6CCOCC6)nc5)cc4)cc3F)C(=O)O)nc2)c(=O)c2ccncc21 [Example 27, (2S)-2-[[2,5-Difluoro-4-[[4-(2-tetrahydropyran-4-ylpyrimidin-5-yl)phenyl]sulfonylamino]benzoyl]amino]-3-[5-(1-methyl-2,4-dioxo-pyrido[3,4-d]pyrimidin-3-yl)-2-pyridyl]propionic acid]",6.70 to 7.30
3,"COCc1ncc(-c2ccc(S(=O)(=O)Nc3cc(F)c(C(=O)N[C@@H](Cc4ccc(-n5c(=O)c6ccncc6n(C)c5=O)cn4)C(=O)O)cc3F)cc2)cn1 [Example 28, (2S)-2-[[2,5-Difluoro-4-[[4-[2-(methoxymethyl)pyrimidin-5-yl]phenyl]sulfonylamino]benzoyl]amino]-3-[5-(1-methyl-2,4-dioxo-pyrido[3,4-d]pyrimidin-3-yl)-2-pyridyl]propanoic acid]",7.30 to 8.00
4,"COCc1cn(-c2ccc(S(=O)(=O)Nc3cc(F)c(C(=O)N[C@@H](Cc4ccc(-n5c(=O)c6ccncc6n(C)c5=O)cn4)C(=O)O)cc3F)cc2)nn1 [Example 29, (2S)-2-[[2,5-Difluoro-4-[[4-[4-(methoxymethyl)triazol-1-yl]phenyl]sulfonylamino]benzoyl]amino]-3-[5-(1-methyl-2,4-dioxo-pyrido[3,4-d]pyrimidin-3-yl)-2-pyridyl]propanoic acid]",6.70 to 7.30
5,"C=CCn1cc(-c2ccc(S(=O)(=O)Nc3cc(F)c(C(=O)N[C@@H](Cc4ccc(-n5c(=O)c6ccncc6n(C)c5=O)cn4)C(=O)O)cc3F)cc2)cnc1=O [Example 30, (2S)-2-[[4-[[4-(1-Allyl-2-oxo-pyrimidin-5-yl)phenyl]sulfonylamino]-2,5-difluoro-benzoyl]amino]-3-[5-(1-methyl-2,4-dioxo-pyrido[3,4-d]pyrimidin-3-yl)-2-pyridyl]propanoic acid]",7.30 to 8.00
6,"CN(C)CCc1ncc(-c2ccc(S(=O)(=O)Nc3cc(F)c(C(=O)N[C@@H](Cc4ccc(-n5c(=O)c6ccncc6n(C)c5=O)cn4)C(=O)O)cc3F)cc2)cn1 [Example 33, (2S)-2-[[4-[[4-[2-(2-Dimethylaminoethyl)pyrimidin-5-yl]phenyl]sulfonylamino]-2,5-difluoro-benzoyl]amino]-3-[5-(1-methyl-2,4-dioxo-pyrido[3,4-d]pyrimidin-3-yl)-2-pyridyl]propanoic acid]",7.30 to 8.00
7,"Cn1c(=O)n(-c2ccc(C[C@H](NC(=O)c3cc(F)c(NS(=O)(=O)c4ccc(-c5ccnc(C6CCOCC6)c5)cn4)cc3F)C(=O)O)nc2)c(=O)c2ccncc21 [Example 34, (2S)-2-[[2,5-Difluoro-4-[[5-(2-tetrahydropyran-4-yl-4-pyridyl)-2-pyridyl]sulfonylamino]benzoyl]amino]-3-[5-(1-methyl-2,4-dioxo-pyrido[3,4-d]pyrimidin-3-yl)-2-pyridyl]propanoic acid]",7.30 to 8.00
8,"Cc1c(-c2ccc(C[C@H](NC(=O)c3cc(F)c(NS(=O)(=O)c4ccc(-c5cnc(N6CCC6)nc5)cc4)cc3F)C(=O)O)cc2)c(=O)n(C)c(=O)n1C [Example 36, (2S)-2-[[4-[[4-[2-(Azetidin-1-yl)pyrimidin-5-yl]phenyl]sulfonylamino]-2,5-difluoro-benzoyl]amino]-3-[4-(1,3,4-trimethyl-2,6-dioxo-pyrimidin-5-yl)phenyl]propanoic acid]",6.70 to 7.30
